# Legend:
# [1] = biological target: BChE (Equus caballus, UniProt P81908); test: Ellman's assay, BChE inhibition; assay type: biochemical
# [2] = biological target: AChE (Electrophorus electricus, UniProt O42275); test: Ellman's assay, AChE (type VI-S) inhibition; assay type: biochemical
# Chain of AChE (O42275 24-633): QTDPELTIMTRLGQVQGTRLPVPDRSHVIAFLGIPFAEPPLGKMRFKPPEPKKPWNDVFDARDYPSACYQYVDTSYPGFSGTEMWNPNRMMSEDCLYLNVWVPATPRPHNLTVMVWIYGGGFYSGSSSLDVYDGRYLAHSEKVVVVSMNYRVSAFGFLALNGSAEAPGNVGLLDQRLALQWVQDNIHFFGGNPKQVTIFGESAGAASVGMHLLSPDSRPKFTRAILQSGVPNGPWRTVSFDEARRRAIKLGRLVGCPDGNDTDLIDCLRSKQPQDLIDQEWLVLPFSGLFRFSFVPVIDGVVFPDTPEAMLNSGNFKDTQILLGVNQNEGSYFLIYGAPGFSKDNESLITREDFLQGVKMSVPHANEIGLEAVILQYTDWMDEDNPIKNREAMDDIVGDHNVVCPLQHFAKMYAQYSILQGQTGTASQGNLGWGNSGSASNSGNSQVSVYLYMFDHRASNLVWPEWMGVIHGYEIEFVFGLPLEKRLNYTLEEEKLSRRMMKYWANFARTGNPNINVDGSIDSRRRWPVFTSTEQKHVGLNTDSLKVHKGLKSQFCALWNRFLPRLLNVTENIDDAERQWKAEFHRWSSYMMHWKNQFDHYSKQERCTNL
# Chain of BChE (P81908 whole entry): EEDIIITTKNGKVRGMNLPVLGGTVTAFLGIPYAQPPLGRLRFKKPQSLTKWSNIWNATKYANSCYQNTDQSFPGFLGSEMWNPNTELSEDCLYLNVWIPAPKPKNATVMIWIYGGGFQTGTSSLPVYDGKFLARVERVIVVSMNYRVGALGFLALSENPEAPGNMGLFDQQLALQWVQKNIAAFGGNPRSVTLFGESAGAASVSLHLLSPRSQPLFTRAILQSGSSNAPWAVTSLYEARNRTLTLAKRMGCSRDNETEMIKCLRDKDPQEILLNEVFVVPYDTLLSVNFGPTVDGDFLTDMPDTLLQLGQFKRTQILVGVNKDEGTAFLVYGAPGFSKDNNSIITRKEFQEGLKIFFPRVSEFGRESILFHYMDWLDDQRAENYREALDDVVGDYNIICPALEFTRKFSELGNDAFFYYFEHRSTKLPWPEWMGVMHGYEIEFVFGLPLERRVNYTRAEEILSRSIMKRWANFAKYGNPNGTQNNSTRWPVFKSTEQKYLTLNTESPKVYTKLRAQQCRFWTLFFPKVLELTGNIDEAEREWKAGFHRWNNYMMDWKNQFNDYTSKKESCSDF
structure (smiles),measurement,setting,value
C/C=C\c1ccc(O)c(OC)c1 [isoeugenol],IC50,[1],1690 µM
same,IC50,[2],2620 µM

# — PMC11808583 (Current Neuropharmacology, 2024)
